Assay results reported in patent publication US10968214B2, “KRas G12C inhibitors” (Eli Lilly and Company, priority 2018, dated 2021).
Values joined by “and” are separate entries in the source; they are usually repeats but may differ in a detail not shown here. Equal values may be shown once. Read-outs that look alike come from different tables or passages of the source.

Key:
[1] = tested on: H2122 xenograft; experiment: Anti-tumor growth activity, lung cancer H2122 xenograft mouse model; type: in vivo; conditions: for Tumor Growth Inhibition (%) or Regression (−%): H2122 Lung
Experimental: (§1) To evaluate in vivo target inhibition and anti-tumor efficacy of a compound, Human lung cancer cells, H358 or H2122 are implanted into nude mice xenograft tumor models. Either H358 or H2122 cells (10×10^6 in a 1:1 Matrigel® mix, 0.2 mL total volume) are implanted by subcutaneous injection in hind leg of nude female mice (Harlan Laboratories). A total of 5 mice each group are used for efficacy study, and a total of 3-4 mice each group are used for target engagement and PD study. Treatment is initiated with oral administration (gavage) of a test compound or vehicle (20% Captisol®, 25 mM phosphate, pH 2.0 in 0.2 mL volume when the tumor size reaches approximately […]. Tumor growth and body weight are monitored over time to evaluate efficacy and signs of toxicity. Bidimensional measurements of tumors are performed twice a week and tumor volumes are calculated based on mid-axis length and mid-axis width. Tumor volume data are transformed to a log scale to equalize variance across time and treatment groups. The log volume data are analyzed with a two-way repeated measures analysis of variance by time and treatment using the mixed procedures in SAS software (version 8.2). The correlation model for the repeated measures is spatial power. Treated groups are compared to the control group at each time point. The mixed procedure is also used separately for each treatment group to calculate adjusted means and standard errors at each time point. Both analyses account for the autocorrelation within each animal. The adjusted means and standard errors are plotted for each treatment group versus time.
H2122 lung tumor cells (10×10^6) are implanted by subcutaneous injection in hind leg of nude female mice (Taconic Biosciences). A total of 5 mice each group are used for efficacy study.

[2] = tested on: H358 xenograft; experiment: Anti-tumor growth activity, lung cancer H358 xenograft mouse model; type: in vivo; conditions: for Tumor Growth Inhibition (%) or Regression (−%): 28 Day, negative = regression
Experimental: as §1
H358 lung tumor cells (10×10^6) are implanted by subcutaneous injection in hind leg of nude female mice (Taconic Biosciences).

[3] = tested on: H2122; experiment: CellTiterGlo Cell Proliferation Assay, H2122; type: cell-based; conditions: Homo sapiens, NCI-H2122, KRas G12C, Lung, 96 hr
Experimental: (§2) A panel of tumor cell lines harboring KRas G12C or other KRas mutations are collected (Table 6). All cell lines are from ATCC or other sources indicated.
(§3) Typically cells are cultured in RPMI1640 or Dulbecco's modified Eagle's medium (DMEM, GIBCO) supplemented with 10% FBS (GIBCO, Invitrogen). For 2D culture cells (4×10^3/well) maintained in growth medium described above, are plated onto 96 well tissue culture plates Corning® Cat. 3603) a day before the treatment. For 3D culture 8000 cells/well are seeded onto 96 well ultra-low attachment tissue culture plates (Corning, #3474). The cells are treated compound for 96 hr, and then are analyzed for viability using the CellTiterGlo® Luminescent Cell Viability Assay® (Promega #G7572 for 2D and Promega #G9683 for 3D cultures) according to manufacturer's instructions and an EnVision™ plate reader. Nonlinear regression and sigmoidal dose-response curves are used to calculate the half maximal inhibitory concentration (IC50) with GraphPad Prism 4® software.

[4] = tested on: LXFA-983L; experiment: Combination 4 day growth assay (Cell TiterGlo), LXFA-983L; type: cell-based; conditions: LXFA 983L, 96 h, single treatment, read-out: Absolute IC50
Experimental: (§4) Cell lines for this study are obtained from ATCC and grown under ATCC recommended conditions, except for LXFA-983L, which is obtained from Oncotest/Charles Rivers Laboratories, Wilmington, Mass. and D122-96, which is obtained from L. Eisenbach (Weizman Institute of Science, Rehovot, Israel)—both grown under recommended conditions. […] The proliferation assay is performed as a 4 day growth assay using Cell TiterGlo® as the readout. Briefly, cells are plated in 96-well cell culture plates and allowed to adhere overnight at 37° C. The following day, cells are treated with compounds, either single treatments or combination treatments. First, the testing compounds are serially diluted in DMSO, followed by dilution into media as a 5× concentration with 1% DMSO, and finally added to cells in media to dilute to 1×. The cells are incubated at 37° C. for 4 more days. At the end of the incubation period, Cell TiterGlo® reagent is mixed and added to the wells. After 10 minutes, the luminescence is read by a Perkin Elmer Envision instrument. Absolute IC50 values generated by a 4-parameter logistics model for the single and combination treatments are generated, followed by combination indexes for each combination treatment and cell line. The combination IC50 values are adjusted based on the total concentration of each compound when added together. […] The combination index (CI) measures the degree to which the potency of a combination therapy differs from the expected-if-additive potency and is based on the Loewe definition of additivity.
(§5) [formula] Where • CAy and CBy are the concentrations of therapies A and B that produce an effect, y, when given in combination • ICAy and ICBy are the concentrations of A and B that produce an effect, y, when given individually The biological interpretation of the combination index is as follows: synergistic if the combination index <0.5, additive if the combination index is between 0.5 and 2, and antagonistic if the combination index is >2.

[5] = tested on: UM-UC-3; experiment: Combination 4 day growth assay (Cell TiterGlo), UM-UC-3; type: cell-based; conditions: Homo sapiens, UMUC3, 96 h, single treatment, read-out: Absolute IC50
Experimental: as §4, §5

[6] = tested on: H441; experiment: CellTiterGlo Cell Proliferation Assay, H441; type: cell-based; conditions: Homo sapiens, NCI-H441, KRas G12V, lung, 96 hr
Experimental: as §2, §3

[7] = read-out: IC50 (μM) in 2 D cell proliferation
[8] = read-out: IC50 (μM) in 3 D spheroid cell proliferation

IC50 [3, 7]: 0.187 µM | IC50 [3, 8]: 0.017 µM | IC50 [6, 7]: 16.5 µM | IC50 [6, 8]: 7.89 µM
SMILES: C=CC(=O)N1CCN(c2ncnc3c(F)c(-c4ccc(F)c5sc(N)nc45)c(Cl)cc23)CC1 [Example 1, 1-{4-[7-(2-Amino-7-fluoro-1,3-benzothiazol-4-yl)-6-chloro-8-fluoroquinazolin-4-yl]piperazin-1-yl}prop-2-en-1-one]
Tumor Growth Inhibition (%) or Regression (−%) ([1]; 30 mg/kg BID, 28 Day, oral, negative = regression): 72.97% | Tumor Growth Inhibition (%) or Regression (−%) ([1]; 30 mg/kg QD, 28 Day, oral, negative = regression, 30 mg/kg): 77.17% and 77.2% | Tumor Growth Inhibition (%) or Regression (−%) ([1]; 100 mg/kg QD, 28 Day, oral, negative = regression, 100 mg/kg): 91.06% and 91.1% | Tumor Growth Inhibition (%) or Regression (−%) ([1]; Example 1 30 mg/kg QDx28): 77.2 | Tumor Growth Inhibition (%) or Regression (−%) ([1]; Example 1 100 mg/kg QDx28): −1.4 | animal body weight loss ([1]; H2122 xenograft mice, 30 mg/kg once or twice daily or 100 mg/kg once daily for 28 days, oral): No significant animal body weight loss was observed | Tumor Growth Inhibition (%) or Regression (−%) ([2]; H358 Lung, 10 mg/kg BID, oral): −1.98% | Tumor Growth Inhibition (%) or Regression (−%) ([2]; H358 Lung, 10 mg/kg QD, oral): 42.7% | Tumor Growth Inhibition (%) or Regression (−%) ([2]; H358 Lung, 30 mg/kg BID, oral): −74.35% | Tumor Growth Inhibition (%) or Regression (−%) ([2]; H358 Lung, 30 mg/kg QD, oral): −33.98% | In Vivo Anti-Tumor Activities ([2]; H358 Lung, Example 1 30 mg/kg QDx28): −33.4 | animal body weight loss ([2]; H358 xenograft mice, 10 or 30 mg/kg once or twice daily for 28 days, oral): No significant animal body weight loss was observed | IC50 [4]: 2.59 µM | IC50 [5]: 1.83 µM
